Consider 38 molecules from patent US20210139484A1, “DIHYDROISOQUINOLINE-2(1H)-CARBOXAMIDE AND RELATED COMPOUNDS AND THEIR USE IN TREATING MEDICAL CONDITIONS” (GOSSAMER BIO SERVICES, INC., priority 2018, published 2021).

The first experiment concerns the target T1, human HPK1 protein (Homo sapiens, UniProt Q92918).
T1 construct: recombinant human HPK1 protein (a.a. 1-346) was expressed in Sf9 insect cells; GST (N); purchased Signalchem M23-11G; host or cells: Sf9 insect cells (baculovirus)
T1 sequence (Q92918 1-346): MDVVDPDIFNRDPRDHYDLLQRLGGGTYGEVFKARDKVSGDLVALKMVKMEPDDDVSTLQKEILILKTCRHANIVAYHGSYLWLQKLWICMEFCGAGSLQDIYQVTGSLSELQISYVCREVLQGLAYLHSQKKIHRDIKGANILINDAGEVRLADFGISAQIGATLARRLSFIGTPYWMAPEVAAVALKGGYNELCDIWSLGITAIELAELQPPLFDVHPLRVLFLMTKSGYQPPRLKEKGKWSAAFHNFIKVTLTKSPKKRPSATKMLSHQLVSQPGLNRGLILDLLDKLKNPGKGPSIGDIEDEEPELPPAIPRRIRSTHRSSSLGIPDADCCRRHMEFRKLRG
Put plainly: Human HPK1 protein TR-FRET assay. Type of experiment: biochemical. The note with it: 1 mM ATP, Table 19. As to the method:
Exemplary compounds from the above Examples were tested for ability to inhibit HPK1 using a human HPK1 protein TR-FRET Assay. Assay procedures and results are described below.
N-terminal GST-tagged recombinant human HPK1 protein (a.a. 1-346) was expressed in Sf9 insect cells using a baculovirus expression system (Signalchem Catalog #M23-11G). The enzyme was diluted in assay buffer (50 mM Tris pH 7.5, 1 mM MgCl2, 0.01% NP-40 and 2 mM DTT) to obtain a 4× working solution at a concentration of 40 nM HPK1 enzyme.
A 5 μM stock of ULight™ CREBtide peptide RRPSYRK (Perkin Elmer Product No. TRF0107-M) derived from human cAMP Response Element Binding (CREB) Protein was prepared in storage buffer containing 50 mM Tris-HCl (pH 7.4), 0.9% NaCl, 0.1% BSA, and 0.05% sodium azide. The CREBtide substrate was diluted in assay buffer (50 mM Tris pH 7.5, 1 mM MgCl2, 0.01% NP-40, 2 mM DTT) with 2 mM ATP to a final concentration of 200 nM CREBtide peptide to obtain a 2× working solution of substrate. HPK1 enzyme and CREBtide substrate solutions were mixed with compounds diluted in DMSO to obtain a final concentration of enzyme, substrate, and ATP of 10 nM, 100 nM, and 1 mM, respectively, in 1% DMSO. The final assay mixture was incubated at room temperature for 60 minutes.
A solution of Europium-labeled anti-phospho-CREB (Ser133) antibody (Perkin Elmer Product No. TRF0200-M), EDTA and LANCE™ Detection Buffer (Perkin Elmer Product No. CR97-100) were added to each well to obtain a final concentration of 2 nM antibody, 10 mM EDTA and 1× LANCE buffer. The resulting mixture was incubated at room temperature for 60 minutes.
The fluorescence resonance energy transfer (FRET) signal was measured on an Envision plate reader: Excitation filter=340 nm, APC emission=665 nm, Europium emission=615 nm, dichroic mirror=D400/D630, delay time=100 μs, and integration time=200 μs. The half maximal inhibitory concentration (IC50) values for compounds were calculated from the quotient of the fluorescence signal at 665 nm divided by the fluorescence signal at 615 nm. The quotient of the fluorescence signals in the presence of DMSO without compound is set as 100 percent enzymatic activity. A 4-parameter logistic model in PRISM (GraphPad) was used to calculate the IC50 for a given compound.
Background: TR-FRET usually uses a lanthanide donor and a delayed reading to cut background.
`Cc1cc2c(Oc3ccc4c(c3)[C@H](C)N(C(=O)Nc3cnc(OC5CCCN(C)C5)c(C(F)(F)F)c3)CC4)ccnc2[nH]1` (mixture of isomers) [VI-6] gave an IC50 of 500 to 5000 nM.
As to `Cc1cc2c(Oc3ccc4c(c3)[C@H](C)N(C(=O)Nc3cnc(OC5CCCN(C)CC5)c(C(F)(F)F)c3)CC4)ccnc2[nH]1` (mixture of isomers) [VI-13], the IC50 was in the range of 500 to 5000 nM.
In turn, `CCN1CCN(Cc2ccc(NC(=O)N3Cc4cc(Oc5ccnc6[nH]ccc56)ccc4C(C)C3)cc2C(F)(F)F)CC1` (single isomer, unassigned) [IV-2] registered a concentration for half-maximal inhibition (IC50) below 500 nM.
As to `CCN1CCN(Cc2ccc(NC(=O)N3CCc4c(C)cc(Oc5ccnc6[nH]ccc56)cc4C3C)cc2C(F)(F)F)CC1` (single isomer, unassigned) [IV-4], the IC50 is below 500 nM.
The same measure, in the same setting: the value for `CCN1CCN(Cc2ccc(NC(=O)N3CCc4cc(F)c(Oc5ccnc6[nH]ccc56)cc4C3C)cc2C(F)(F)F)CC1` (single isomer, unassigned) [IV-6] was below 500 nM; that for `CCN1CCN(Cc2ccc(NC(=O)N3CCc4cc(F)c(Oc5ccnc6[nH]c(C)cc56)cc4C3C)cc2C(F)(F)F)CC1` (single isomer, unassigned) [IV-25] was below 500 nM; that for `Cc1cc2c(Oc3ccc4c(c3)CN(C(=O)Nc3cnc(OC5CCN(C)CC5)c(C(F)(F)F)c3)CC4C)ccnc2[nH]1` (single isomer, unassigned) [IV-39] was below 500 nM.
Regarding `Cc1cc2c(Oc3ccc4c(c3)CN(C(=O)Nc3cnc(OC5CCN(C)CC5)c(C(F)(F)F)c3)CC4C)ccnc2[nH]1` (single isomer, unassigned) [IV-40], the concentration for half-maximal inhibition (IC50) is below 500 nM.
The same measure, in the same setting: next, `CCN1CCN(Cc2ccc(NC(=O)N3Cc4cc(Nc5ccnc(NC)c5)cnc4C(C)C3)cc2C(F)(F)F)CC1` (single isomer, unassigned) [IX-2]: 500 to 5000 nM; `CCN1CCN(Cc2ccc(NC(=O)N3Cc4cc(Nc5ccnc(NC)c5)cnc4C(C)C3)cc2C(F)(F)F)CC1` (single isomer, unassigned) [IX-3]: 5000 to 10000 nM; `CCN1CCN(Cc2ccc(NC(=O)N3Cc4cc(Oc5ccnc6[nH]c(C)cc56)cnc4C(C)C3)cc2C(F)(F)F)CC1` (single isomer, unassigned) [VII-4]: below 500 nM.
On the same count and under the same terms, the value for `CCN1CCN(Cc2ccc(NC(=O)N3Cc4cc(Oc5ccnc6[nH]c(C)cc56)cnc4C(C)C3)cc2C(F)(F)F)CC1` (single isomer, unassigned) [VII-5] was below 500 nM.
Consider `Cc1cc2c(Oc3cnc4c(c3)CN(C(=O)Nc3cnc(OC5CCN(C)CC5)c(C(F)(F)F)c3)CC4C)ccnc2[nH]1` (single isomer, unassigned) [VII-7], for which the IC50 was below 500 nM.
In the case of `Cc1cc2c(Oc3cnc4c(c3)CN(C(=O)Nc3cnc(OC5CCN(C)CC5)c(C(F)(F)F)c3)CC4C)ccnc2[nH]1` (single isomer, unassigned) [VII-8], the concentration for half-maximal inhibition (IC50) is below 500 nM.
Still for that read-out and setting: the value for `CCN1CCN(Cc2ccc(NC(=O)N3Cc4cc(Oc5ccnc6[nH]c(C)cc56)cnc4C(C)C3)cc2C(F)(F)F)CC1` (single isomer, unassigned) [VII-20] was below 500 nM.
`CCN1CCN(Cc2ccc(NC(=O)N3Cc4cc(Oc5ccnc6[nH]c(C)cc56)cnc4C(C)C3)cc2C(F)(F)F)CC1` (single isomer, unassigned) [VII-21] had an IC50 below 500 nM.
Regarding `CCC1CN(C(=O)Nc2ccc(CN3CCN(CC)CC3)c(C(F)(F)F)c2)Cc2cc(Oc3ccnc4[nH]c(C)cc34)cnc21` (single isomer, unassigned) [VII-22], the half-maximal inhibitory concentration (IC50) is below 500 nM.
`CCC1CN(C(=O)Nc2ccc(CN3CCN(CC)CC3)c(C(F)(F)F)c2)Cc2cc(Oc3ccnc4[nH]c(C)cc34)cnc21` (single isomer, unassigned) [VII-23] had an IC50 below 500 nM.
Same read-out and setting: next, `CCN1CCN(Cc2ccc(NC(=O)N3CCc4ncc(Oc5ccnc6[nH]c(C)cc56)cc4C3C)cc2C(F)(F)F)CC1` (single isomer, unassigned) [VIII-2]: below 500 nM; `CCN1CCN(Cc2ccc(NC(=O)N3CCc4ncc(Oc5ccnc6[nH]ncc56)cc4C3C)cc2C(F)(F)F)CC1` (single isomer, unassigned) [VIII-4]: 500 to 5000 nM.
As for `CCN1CCN(Cc2ccc(NC(=O)N3CCc4ncc(Oc5ccnc6[nH]ncc56)cc4C3C)cc2C(F)(F)F)CC1` (single isomer, unassigned) [VIII-5], the 50% inhibitory concentration (IC50) was 500 to 5000 nM.
The molecule `Cc1cc2c(Oc3ccc4c(c3)[C@H](C)N(C(=O)Nc3cnc(OC5CCN(C)CC5C)c(C(F)(F)F)c3)CC4)ccnc2[nH]1` (stereo in doubt) [VI-4] returned a half-inhibitory concentration (IC50) of 500 to 5000 nM.
On the same count and under the same terms, the value for `Cc1cc2c(Oc3ccc4c(c3)[C@H](C)N(C(=O)Nc3cnc(OC5CCN(C)CC5C)c(C(F)(F)F)c3)CC4)ccnc2[nH]1` (stereo in doubt) [VI-5] was below 500 nM.
The same measure, in the same setting: the value for `Cc1cc2c(Oc3ccc4c(c3)[C@H](C)N(C(=O)Nc3cnc(OC5CCN(C)CC5O)c(C(F)(F)F)c3)CC4)ccnc2[nH]1` (stereo in doubt) [VI-8] was below 500 nM; that for `Cc1cc2c(Oc3ccc4c(c3)[C@H](C)N(C(=O)Nc3cnc(OC5CCN(C)CC5O)c(C(F)(F)F)c3)CC4)ccnc2[nH]1` (stereo in doubt) [VI-9] was 500 to 5000 nM; that for `Cc1cc2c(Oc3ccc4c(c3)[C@H](C)N(C(=O)Nc3cnc(OC5CCN(C)CC5F)c(C(F)(F)F)c3)CC4)ccnc2[nH]1` (stereo in doubt) [VI-10] was 500 to 5000 nM.

Still in this experiment, the particulars now being: 1 mM ATP, Table 20.
`CCN1CCN(Cc2ccc(NC(=O)N3CCc4ncc(Oc5ccnc6[nH]c(C)cc56)cc4C3C)cc2C(F)(F)F)CC1` (single isomer, unassigned) [XI-9] registered a half-inhibitory concentration (IC50) below 500 nM.
On the same count and under the same terms, next, `CCN1CCN(Cc2ccc(NC(=O)N3Cc4cc(Oc5ccnc6c5CCC(=O)N6)cnc4C(C)C3)cc2C(F)(F)F)CC1` (single isomer, unassigned) [XIV-1]: below 500 nM.
`CCN1CCN(Cc2ccc(NC(=O)N3Cc4cc(Oc5ccnc6[nH]c(=O)ccc56)cnc4C(C)C3)cc2C(F)(F)F)CC1` (single isomer, unassigned) [XIV-2] gave a half-maximal inhibitory concentration (IC50) below 500 nM.
For the molecule `CCN1CCN(Cc2ccc(NC(=O)N3Cc4cc(Oc5ccnc6[nH]c(=O)cnc56)cnc4C(C)C3)cc2C(F)(F)F)CC1` (single isomer, unassigned) [XIV-7], the IC50 fell in the range of 500 to 5000 nM.
The same measure, in the same setting: the value for `CCN1CCN(Cc2ccc(NC(=O)N3Cc4cc(Oc5ccnc6ncc(=O)[nH]c56)cnc4C(C)C3)cc2C(F)(F)F)CC1` (single isomer, unassigned) [XIV-8] was 500 to 5000 nM; that for `CCN1CCN(Cc2ccc(NC(=O)N3Cc4cc(Oc5ccnc6[nH]c(=O)[nH]c56)cnc4C(C)C3)cc2C(F)(F)F)CC1` (single isomer, unassigned) [XIV-12] was below 500 nM; that for `CCN1CCN(Cc2ccc(NC(=O)N3Cc4cc(Oc5ccnc6[nH]c(C7CC7)nc56)cnc4C(C)C3)cc2C(F)(F)F)CC1` (single isomer, unassigned) [XIV-15] was below 500 nM.
In turn, `CCN1CCN(Cc2ccc(NC(=O)N3Cc4cc(Oc5ccnc(NCCO)c5)cnc4C(C)C3)cc2C(F)(F)F)CC1` (single isomer, unassigned) [XIV-16] had an IC50 of 500 to 5000 nM.
The same measure, in the same setting: the value for `CCN1CCN(Cc2ccc(NC(=O)N3Cc4cc(Oc5ccnc6[nH]nnc56)cnc4C(C)C3)cc2C(F)(F)F)CC1` (single isomer, unassigned) [XIV-17] was above 10000 nM; that for `CCN1CCN(Cc2ccc(NC(=O)N3Cc4cc(Oc5cc(N)ncc5F)cnc4C(C)C3)cc2C(F)(F)F)CC1` (single isomer, unassigned) [XIV-18] was 5000 to 10000 nM.
Same read-out and setting: the value for `CCN1CCN(Cc2ccc(NC(=O)N3Cc4cc(Oc5ccnc6[nH]c(C)nc56)cnc4C(C)C3)cc2C(F)(F)F)CC1` (single isomer, unassigned) [XIV-27] was 5000 to 10000 nM.
Take `CCN1CCN(Cc2ccc(NC(=O)N3Cc4cc(Oc5ccnc6[nH]c(-c7cnn(C)c7)nc56)cnc4C(C)C3)cc2C(F)(F)F)CC1` (single isomer, unassigned) [XIV-30]: the IC50 was below 500 nM.

In general, IC50 refers to the point on the concentration scale where inhibition reaches its midpoint. The low end stands for inhibition by little substance, the high end for a need for much substance.
